# Results taken from patent publication US20040049072A1, “RXR modulators with improved pharmacologic profile” (priority 1999, published 2004).
# Entries after “also recorded” stand apart in the source; their conditions may differ. Like-named read-outs stand apart in the source and are kept apart here.
# How the values were obtained:
# [1] = system: db/db mouse; assay: db/db mouse study (rodent model of Type II diabetes)
# Method: Mice (obtained from Jackson Laboratory), ZDF rats (obtained from Genetic Models Inc.) and fa/fa rats (obtained from either Charles River, or Harlan) were maintained on 12-hour light/dark cycle. […] Compounds were administered at the specified doses by oral gavage on the morning of each day of any experiment. Blood samples were obtained 3 hours after dosing from fed animals under anesthesia and collected into heparinized capillary tubes from the tail vein.
# [2] = target: T1, RXRα homodimer (RXR:RXR) (Homo sapiens, UniProt P19793); assay: RXR homodimer co-transfection assay in CV-1 cells; format: cell-based
# T1 sequence (P19793 1-462): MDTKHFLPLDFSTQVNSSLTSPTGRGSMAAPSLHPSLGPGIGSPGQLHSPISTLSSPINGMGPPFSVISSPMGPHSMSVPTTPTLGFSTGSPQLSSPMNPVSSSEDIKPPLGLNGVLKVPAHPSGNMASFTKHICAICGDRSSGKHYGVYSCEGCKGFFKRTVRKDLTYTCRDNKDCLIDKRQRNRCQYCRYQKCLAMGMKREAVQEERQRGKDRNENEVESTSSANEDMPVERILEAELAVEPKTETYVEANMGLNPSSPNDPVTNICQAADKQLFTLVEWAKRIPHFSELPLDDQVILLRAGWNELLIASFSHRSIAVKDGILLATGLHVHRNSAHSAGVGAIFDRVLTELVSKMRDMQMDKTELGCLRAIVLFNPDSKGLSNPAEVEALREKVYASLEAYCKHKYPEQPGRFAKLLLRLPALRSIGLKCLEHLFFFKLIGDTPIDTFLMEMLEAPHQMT
# [3] = target: T2, RXRα:RAR heterodimer (Homo sapiens, UniProt P19793); assay: RXR:RAR heterodimer co-transfection assay in CV-1 cells; format: cell-based
# T2 construct: expressed in transfected cells; host or cells: CV-1 cells
# T2 sequence (P19793 1-462): T1 sequence (P19793 1-462)
# Outline: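 Cells co-transfected with the heterodimer were given compound at 10^−10 to 10^−5 M. Agonist efficacy was the maximum response over the dose–response curve relative to the reference agonist's maximum. Antagonist efficacy was expressed as % maximal inhibition.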
# [4] = rodent models of Type II Diabetes
compound,measurement,setting,value
CCCOc1c(/C(C)=C/C=C/C(C)=C/C(=O)O)cc(C(C)(C)C)cc1C(C)(C)C [Compound L3],db/db mouse Glu. (D 14),"[1]; plasma glucose, % correction relative to lean values, day 14, 100 mg/kg daily oral gavage",75%
same,db/db mouse Trigs. (D 14),"[1]; plasma triglycerides, % correction relative to lean values, day 14, NC = no change",133%
same,effect on the thyroid hormone axis,[1]; [4],absence of detectable suppression of the thyroid hormone axis; also recorded: does not
same,insulin sensitizing activity with thyroid axis suppression and triglyceride elevations,[1]; [4],maintain the desirable insulin sensitizing activity and eliminate or reduce both the suppression of the thyroid axis and triglyceride elevations; also recorded: maintain the desirable insulin sensitizing activity and minimize both the suppression of the thyroid axis and triglyceride elevations
same,RXRα Homodimer Cotransfection Assay Agonist Efficacy (%),"[2]; Table 3 c2, mean of n > 3",2%
same,RXRα Homodimer Cotransfection Assay Agonist Efficacy (%),"[2]; Table 3 c4, in presence of 3.2×10^−8 M LGD1069",90%
same,activity on the RXR:RXR homodimer,[2]; cotransfection assay,highly efficacious and potent antagonist activity with little or no agonist activity
same,IC50,"[2]; in presence of LGD1069, not calculated if efficacy <10%, read-out: RXRα Homodimer Cotransfection Assay Antagonist IC50",5 nM
same,RXR:RXR CV-1 (%) Antag.,[2]; maximal repression (100%) in presence of 32 nM LGD1069,90%
same,RXR:RXR CV-1 (%) Ag.,[2]; maximal response relative to ATRA,2%
same,Emax,"[3]; CV-1, read-out: RXR:RAR CV-1 (%) Ag.",5%
same,Emax,"[3]; CV-1, read-out: RXRα:RAR Heterodimer Cotransfection Assay Agonist Efficacy (%)",5%
same,antagonist activity on the RXR:RAR heterodimer,[3]; antagonist assay,significant RXR:RAR antagonist activity
same,RXR:RAR antagonist activity relative to L2,[3]; comparison of L3 with L2,approximately twice the RXR:RAR antagonist activity as L2
same,agonist activity on the RXR:RAR heterodimer,[3]; compound alone,not active as RXR:RAR agonists
same,RXR:RAR CV-1 (%) Antag.,[3]; maximal repression (100%) in presence of 10 nM TTNPB,84%
same,RXRα:RAR Heterodimer Cotransfection Assay Antagonist Efficacy (%),[3]; relative to maximal repression (100%) in presence of 10 nM TTNPB,84%
